# From patent publication US5905068A, “Retroviral protease inhibiting compounds” (Abbott Laboratories, priority 1996, dated 1999)
# What was measured:
# [1] = target: HIV-1 protease (Human immunodeficiency virus type 1 group M subtype B, UniProt P04585); test: Fluorogenic Assay for Screening Inhibitors of HIV Protease; conditions: pH 4.5
# [2] = tested on: HIVIIIB; test: Antiviral Activity: anti-HIV activity in MT4 cells infected with HIVIIIB (MTT); assay type: cell-based; conditions: Human immunodeficiency virus 1, 120 h, MOI 0.003, 5 days, n=four duplicate determinations
# Method: (§1) The anti-HIV activity of the compound of the invention was determined in MF4 cells according to the following procedure: MT4 cells were infected with cell-free supernatant of HIVIIIB (previously frozen with known 50% tissue culture infectious dose (TCID50) at 0.003 multiplicity of infection (MOI)) for one hour. After one hour infection, cells were washed twice to remove residual viruses, resuspended in culture media and seeded into 96-well tissue culture plates at 1×10^4 cells per well with various half-log dilutions of compounds. Uninfected cells were included a toxicity and cell controls. RPMI 1640 media (GIBCO) with 10% fetal bovine serum was used as culture media. Various concentrations (50%, 25% and 12.5%) of human serum (SIGMA) were added to culture media resulting in final concentrations of 60%, 35% and 22.5% total serum. All assay plates were incubated in a 37° C. incubator for 5 days. The compound 3-[4,5-dimethylthiozol-2-yl]-2,5-diphenyltetrazolium bromide (MTT, SIGMA, 5 mg .mL stock in PBS) was then added to all wells at 25 μL per well and incubated for 4 hours. SDS (20%) with 0.02N HCl in water was added at 50 μL per well to lyse cells. Plates were incubated overnight for complete cell lysis and then read on a microtiter plate reader at 570/650 nm wavelengths to determine cell optical density (O.D.). Raw data was analysed for percent inhibition by the following formula: [formula]
# The 50% effective concentration (EC50) was calculated by the median effect equation (Chou, 1975, Proc. Int. Cong. Pharmacol. 6th p. 619) to determine the efficacy of compound. The 50% cytotoxicity concentration (CTC50) was calculated using uninfected MT4 cells
# Under these conditions, the data of Table 2 was obtained (n=four duplicate determinations).
# [3] = Cytotoxicity in uninfected MT4 cells (MTT); assay type: cell-based; conditions: human, 5 days, n=four duplicate determinations, read-out: CTC50 (50% cytotoxicity concentration)
# Method: as §1, with “RPMI 1640 media (GIBCO) with 10% fetal bovine serum was used as culture media. Various concentrations (50%, 25% and 12.5%) of human serum (SIGMA) were added to culture media resulting in final concentrations of 60%, 35% and 22.5% total serum.” left out, “The compound 3-[4,5-dimethylthiozol-2-yl]-2,5-diphenyltetrazolium bromide (MTT, SIGMA, 5 mg .mL stock in PBS) was then added to all wells at 25 μL per well and incubated for 4 hours.” left out
# The 50% cytotoxicity concentration (CTC50) was calculated using uninfected MT4 cells
inhibition at 0.0013 µM [1] [%],inhibition at 0.001 µM [1] [%],EC50 [2] [nM],inhibition at 0.0005 µM [1] [%],inhibition at 0.0022 µM [1] [%],SMILES,CC50 at 120 h [3] [nM]
50,,,,,"Cc1cccc(C)c1OCC(=O)N[C@@H](Cc1ccccc1)[C@@H](O)C[C@H](Cc1ccccc1)NC(=O)OC1CCSC1C(C)C (stereo partly drawn) [Example 27, (2S,3S,5S)-2-(2,6-Dimethylphenoxyacetyl)amino-5-(3(R,S)-2(R,S)-isopropyl-tetrahydrothienyloxycarbonyl)amino-1,6-diphenyl-3-hydroxyhexane]",
,50,5790,,,"Cc1cc(N)cc(C)c1SCC(=O)N[C@@H](Cc1ccccc1)C[C@H](O)[C@H](Cc1ccccc1)NC(=O)O[C@H]1CO[C@H]2OCC[C@H]21 [Example 17, 5-(2,6-Dimethyl-4-amino-phenylthioacetyl)amino-2-((3R,3aS,6aR)-bis-tetrahydrofuran-3-yl-oxycarbonyl)amino-1,6-diphenyl-3-hydroxybexane]",56000
,,353,74,,"COc1cccc(C)c1OCC(=O)N[C@@H](Cc1ccccc1)C[C@H](O)[C@H](Cc1ccccc1)NC(=O)O[C@H]1CO[C@H]2OCC[C@H]21 [Example 12, (2S,3S,5S)-5-(2-Methoxy-6-methylphenoxyacetyl)amino-2-((3R,3aS,6aR)-bis-tetrahydrofuran-3-yl-oxycarbonyl)amino-1,6-diphenyl-3-hydroxyhexane]",> 32000
,,1120,,50,"Cc1c(O)cccc1C(=O)N[C@@H](Cc1ccccc1)[C@@H](O)C[C@H](Cc1ccccc1)NC(=O)O[C@@H]1CO[C@@H]2OCC[C@@H]21 [Example 60, (2S,3S,5S)-2-(3-Hydroxy-2-methyl-benzoyl)amino-5-((3S,3aR,6aS)-bis-tetrahydrofuran-3-yl-oxycarbonyl)amino-1,6-diphenyl-3-hydroxyhexane]",> 100000
,,101,72,,"Nc1ccc(C(=O)N[C@@H](Cc2ccccc2)[C@@H](O)C[C@H](Cc2ccccc2)NC(=O)O[C@H]2CO[C@H]3OCC[C@H]32)c(Cl)c1 [Example 71, (2S,3S,5S)-2-(4-Amino-2-chloro-benzoyl)amino-5-((3R,3aS,6aR)-bis-tetrahydrofuran-3-yl-oxycarbonyl)amino-1,6-diphenyl-3-hydroxyhexane]",> 100000
,,370,72,,"CC(C)[C@@H](NC(=O)N(C)Cc1cncs1)C(=O)N[C@@H](Cc1ccccc1)C[C@H](O)[C@H](Cc1ccccc1)NC(=O)O[C@H]1CO[C@H]2OCC[C@H]21 [Example 44, (2S,3S,5S)-5-(N-(N-((N-Methyl-N-((5-thiazolyl)methyl)amino)carbonyl)-D-valinyl)amino)-2-((3R,3aS,6aR)-bis-tetrahydrofuran-3-yl-oxycarbonyl)amino-1,6-diphenyl-3-hydroxyhexane]",> 100000
,,157,80,,"Cc1cc2ncoc2c(C)c1OCC(=O)N[C@@H](Cc1ccccc1)C[C@H](O)[C@H](Cc1ccccc1)NC(=O)O[C@H]1CO[C@H]2OCC[C@H]21 [Example 26, (2S,3S,5S)-5-(4,6-Dimethyl-benzoxazol-5-yloxy-acetyl)amino-2-((3R,3aS,6aR)-bis-tetrahydrofuran-3-yl-oxycarbonyl)amino-1,6-diphenyl-3-hydroxyhexane]",29800
,,37,88,,"Cc1cccc(CO)c1OCC(=O)N[C@@H](Cc1ccccc1)C[C@H](O)[C@H](Cc1ccccc1)NC(=O)O[C@H]1CO[C@H]2OCC[C@H]21 [Example 7, (2S,3S,5S)-5-(2-Hydroxymethyl-6-methyl-phenoxyacetyl)amino-2-((3R,3aS,6aR)-bis-tetrahydrofuran-3-yl-oxycarbonyl)amino-1,6-diphenyl-3-hydroxyhexane]",82000
,,644,68,,"O=C(N[C@@H](Cc1ccccc1)C[C@H](O)[C@H](Cc1ccccc1)NC(=O)c1cccc(O)c1)O[C@H]1CO[C@H]2OCC[C@H]21 [Example 66, (2S,3S,5S)-2-(3-Hydroxy-benzoyl)amino-5-((3R,3aS,6aR)-bis-tetrahydrofuran-3-yl-oxycarbonyl)amino-1,6-diphenyl-3-hydroxyhexane]",
